{
  "source": "patent US20070135390A1",
  "about": "“Phosphate derivatives” (priority 2003, published 2007)",
  "origin": "cited, not measured here",
  "conditions": "printed as in vitro use",
  "data": [
    {"substance": "Phenol, 2,6-bis(1-methylethyl)-, dihydrogen phosphate (9CI) [propofol phosphate]", "values": [
      {"measurement": "induction of anesthesia", "value": "does not however induce anesthesia"}
    ]}
  ]
}
